{"source": "patent US6022696A", "about": "“Methods of identifying agonists or antagonists of angiotensin IV” (Washington State University Research Foundation, priority 1998, dated 2000)", "key": {"[1]": {"assay": "Stability of angiotensin peptides in binding assay buffer / assay conditions", "format": "physicochemical"}, "[2]": {"molecular_target": "T1, AT1 receptor (Bos taurus, UniProt P25104)", "T1 construct": "from tissue; host or cells: bovine adrenal cortex membranes", "T1 sequence (P25104 1-359)": "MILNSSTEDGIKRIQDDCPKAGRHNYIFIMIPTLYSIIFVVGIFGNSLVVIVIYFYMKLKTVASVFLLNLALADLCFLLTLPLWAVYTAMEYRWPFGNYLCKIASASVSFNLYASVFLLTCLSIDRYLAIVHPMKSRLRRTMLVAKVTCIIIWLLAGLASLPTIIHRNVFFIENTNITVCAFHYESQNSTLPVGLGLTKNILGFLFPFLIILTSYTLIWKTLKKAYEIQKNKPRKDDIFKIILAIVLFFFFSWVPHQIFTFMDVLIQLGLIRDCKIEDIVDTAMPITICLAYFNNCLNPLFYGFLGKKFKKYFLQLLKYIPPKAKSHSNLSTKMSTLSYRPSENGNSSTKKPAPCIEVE", "format": "binding, bovine"}, "[3]": {"conditions": "arterial and venous blood in man; cited from earlier work"}, "[4]": {"molecular_target": "T2, AT4 receptor (Bos taurus, UniProt F1N1Q8)", "T2 sequence (F1N1Q8 1-1022)": "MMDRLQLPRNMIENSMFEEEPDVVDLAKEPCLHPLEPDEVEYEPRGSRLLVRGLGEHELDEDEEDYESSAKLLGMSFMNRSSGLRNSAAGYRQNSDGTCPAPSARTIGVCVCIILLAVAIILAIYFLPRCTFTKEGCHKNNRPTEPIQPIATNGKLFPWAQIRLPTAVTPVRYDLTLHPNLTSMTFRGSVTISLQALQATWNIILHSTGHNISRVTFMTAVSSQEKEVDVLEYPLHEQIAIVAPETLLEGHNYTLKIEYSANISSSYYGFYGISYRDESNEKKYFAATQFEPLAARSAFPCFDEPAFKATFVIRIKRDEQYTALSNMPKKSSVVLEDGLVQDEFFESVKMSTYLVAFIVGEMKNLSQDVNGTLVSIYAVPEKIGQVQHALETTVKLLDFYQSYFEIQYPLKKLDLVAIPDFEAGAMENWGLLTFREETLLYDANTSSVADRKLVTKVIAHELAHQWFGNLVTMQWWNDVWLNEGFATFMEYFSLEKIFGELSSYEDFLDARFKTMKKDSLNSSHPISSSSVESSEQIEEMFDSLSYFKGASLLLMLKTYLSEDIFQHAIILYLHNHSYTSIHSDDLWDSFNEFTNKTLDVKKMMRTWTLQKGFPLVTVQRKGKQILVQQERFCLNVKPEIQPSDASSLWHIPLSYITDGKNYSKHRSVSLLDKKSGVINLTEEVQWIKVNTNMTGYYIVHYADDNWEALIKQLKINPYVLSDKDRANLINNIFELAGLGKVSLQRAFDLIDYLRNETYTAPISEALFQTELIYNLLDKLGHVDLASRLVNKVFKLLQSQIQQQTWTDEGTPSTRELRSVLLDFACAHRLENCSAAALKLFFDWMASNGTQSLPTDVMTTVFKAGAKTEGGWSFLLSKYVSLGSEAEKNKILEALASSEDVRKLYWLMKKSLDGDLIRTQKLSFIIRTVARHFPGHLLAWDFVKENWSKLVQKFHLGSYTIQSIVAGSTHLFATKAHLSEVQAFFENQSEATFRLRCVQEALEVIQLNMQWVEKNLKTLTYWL", "assay": "125I-AIV binding and competition, bovine adrenal cortical membranes"}, "[5]": {"molecular_target": "T2, AT4 receptor", "assay": "125I-AIV binding and competition, bovine coronary venular endothelial cell (CVEC) membranes"}, "[6]": {"format": "in vitro ADME, rat", "conditions": "for metabolic stability, in words: rat kidney membranes / homogenates"}, "[7]": {"tested_on": "rat", "assay": "Systemic arterial blood pressure during renal artery infusion"}, "[8]": {"tested_on": "vascular endothelial cells", "assay": "EDRF production in vascular endothelial cells", "format": "cell-based", "experimental": "Bovine aortic endothelial cells were grown at 37° C. in 35 mm culture plates under 5% CO2 in air in Dulbecco's Modified Eagle's Medium (DMEM) supplemented with 5 μg/ml insulin and 10% (v/v) newborn bovine serum (NBBS). The medium was aspirated 10-12 hours after seeding and replaced with serum-free medium. The medium was again aspirated 10-12 hours later and replaced with either test or control medium. Control medium was DMEM with 5 µg/ml insulin and 2%, 5%, or 10% (v/v) NBBS as indicated. […] The medium was changed every 48 h (i.e., with supportive DMEM medium for the remainder of the experiment)."}, "[9]": {"tested_on": "rat kidney", "assay": "Renal cortical blood flow (laser doppler) after infusion into the renal artery", "format": "in vivo"}, "[10]": {"molecular_target": "T2, AT4 receptor", "assay": "125I-AIV binding, bovine aortic endothelial cell (BAEC) membranes", "conditions": "BAEC membranes preincubated 60 min at 22° C."}, "[11]": {"molecular_target": "T3, AT1 receptors (Rattus norvegicus, UniProt P25095)", "T3 construct": "membrane fractions from rat vascular smooth muscle cells (RVSMC); endogenous in cells; host or cells: rat vascular smooth muscle cell line WKY IV, passage #17, membrane preparation", "T3 sequence (P25095 1-359)": "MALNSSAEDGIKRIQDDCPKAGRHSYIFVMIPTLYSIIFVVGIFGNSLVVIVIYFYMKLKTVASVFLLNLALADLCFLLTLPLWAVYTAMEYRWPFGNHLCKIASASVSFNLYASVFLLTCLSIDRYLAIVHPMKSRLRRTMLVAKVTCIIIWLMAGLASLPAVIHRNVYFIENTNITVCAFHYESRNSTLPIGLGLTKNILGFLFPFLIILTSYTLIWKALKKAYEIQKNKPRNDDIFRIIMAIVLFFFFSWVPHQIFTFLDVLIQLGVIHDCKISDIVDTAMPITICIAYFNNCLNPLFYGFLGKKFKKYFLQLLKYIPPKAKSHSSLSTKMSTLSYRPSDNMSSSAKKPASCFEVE", "assay": "Effect of GTPγS on 125I-AII binding, rat vascular smooth muscle cell (RVSMC) membranes", "conditions": "dose-dependent"}, "[12]": {"conditions": "bovine adrenal cortical AT4 receptor"}}, "note": "Entries after “also recorded” stand apart in the source; their conditions may differ. Like-named read-outs stand apart in the source and are kept apart here. Non-standard residues stand in square brackets, D forms with d. Residues, ends and D or L forms follow the SMILES beside them. No end group written: not given here. NMeI = CC[C@H](C)[C@H](NC)C(=O)O"}
{"molecule": "125I-AII: 125I-radiolabeled AII (DRVYIHPF; also: 125I radiolabel; UniProt P01019 25-32, looked up)", "values": [{"measurement": "overall hydrolysis under conditions of the assay", "setting": "[1]; bovine adrenal cortical membrane binding assay", "value": "less than 2%"}]}
{"molecule": "CC[C@H](C)[C@H](NC(=O)[C@@H](N)Cc1ccc(O)cc1)C(=O)N[C@@H](Cc1cnc[nH]1)C(=O)N1CCC[C@H]1C(=O)N[C@@H](Cc1ccccc1)C(=O)O", "note": "[AII(4-8)] (H-YIHPF-OH)", "values": [{"measurement": "Ki", "setting": "[2]", "value": "> 1", "unit": "µM"}, {"measurement": "half-life", "setting": "[3]", "value": 2.4, "unit": "min"}]}
{"molecule": "CC[C@H](C)[C@H](NC(=O)[C@H](Cc1ccc(O)cc1)NC(=O)[C@@H](NC(=O)[C@H](CCCNC(=N)N)NC(=O)[C@@H](N)CC(=O)O)C(C)C)C(=O)N[C@@H](Cc1cnc[nH]1)C(=O)N1CCC[C@H]1C(=O)N[C@@H](Cc1ccccc1)C(=O)O", "note": "[AII, Asp1 Arg2 Val3 Tyr4 Ile5 His6 Pro7 Phe8, reference compound]", "values": [{"measurement": "half-life", "setting": "[3]", "value": 4.4, "unit": "min"}]}
{"molecule": "CC[C@H](C)[C@H](NC(=O)[C@H](Cc1ccc(O)cc1)NC(=O)[C@@H](NC(=O)[C@@H](N)CCCNC(=N)N)C(C)C)C(=O)N[C@@H](Cc1c[nH]cn1)C(=O)N1CCC[C@H]1C(=O)N[C@@H](Cc1ccccc1)C(=O)O", "note": "[AIII, Arg1 Val2 Tyr3 Ile4 His5 Pro6 Phe7, reference compound]", "values": [{"measurement": "hydrolysis in binding buffer", "setting": "[1]; 4 h at 37° C., reverse phase HPLC", "value": "less than 10%"}, {"measurement": "decrease in AT4 receptor binding affinity relative to AIV (or stated parent peptide)", "setting": "[4]; [12]", "value": "about 52 fold"}, {"measurement": "half-life", "setting": "[3]", "value": 2.0, "unit": "min"}, {"measurement": "increase in Ki over AIV", "setting": "[5]", "value": 20, "unit": "fold"}]}
{"molecule": "CC[C@H](C)[C@H](NC(=O)[C@H](Cc1ccc(O)cc1)NC(=O)[C@@H](N)C(C)C)C(=O)N[C@@H](Cc1cnc[nH]1)C(=O)N1CCC[C@H]1C(=O)N[C@@H](Cc1ccccc1)C(=O)O", "note": "[AIV, Val1 Tyr2 Ile3 His4 Pro5 Phe6]", "values": [{"measurement": "metabolic stability, in words", "setting": "[6]", "value": "rapidly degraded"}, {"measurement": "effect on arterial blood pressure", "setting": "[7]", "value": "not accompanied by alterations in mean arterial pressure"}, {"measurement": "production of endothelial cell relaxing factor (EDRF)", "setting": "[8]", "value": "stimulating production of endothelial cell relaxing factor (EDRF)"}, {"measurement": "half-life", "setting": "[3]", "value": 1.9, "unit": "min"}, {"measurement": "change in renal cortical blood flow, in words", "setting": "[9]; infusion into rat renal artery, 100 pmol/min where stated", "value": "profound and long-lasting increase in blood flow; also recorded: equally dramatic increase in flow"}, {"measurement": "agonist / antagonist activity at the AT4 receptor", "setting": "[9]; judged from renal blood flow response compared with AIV", "value": "full agonistic activity"}, {"measurement": "effect of preinfusion on agonist-induced change in renal blood flow", "setting": "[9]; preinfusion before the named agonist", "value": "completely blocked the constrictive action of AII"}]}
{"molecule": "CC[C@H](C)[C@H](NC)C(=O)N[C@@H](Cc1ccc(O)cc1)C(=O)N[C@H](C(=O)N[C@@H](Cc1c[nH]cn1)C(=O)N1CCC[C@H]1C(=O)N[C@@H](Cc1ccccc1)C(=O)O)[C@@H](C)CC", "note": "[CH3--I1 YIHPF] (H-[NMeI]YIHPF-OH)", "values": [{"measurement": "decrease in AT4 receptor binding affinity relative to AIV (or stated parent peptide)", "setting": "[4]; [12]", "value": 67, "unit": "fold"}]}
{"molecule": "CC[C@H](C)[C@H](NC(=O)[C@H](Cc1ccc(O)cc1)NC(=O)[C@@H](N)CC(=O)O)C(=O)N[C@@H](Cc1c[nH]cn1)C(=O)N1CCC[C@H]1C(=O)N[C@@H](Cc1ccccc1)C(=O)O", "note": "[DYIHPF] (H-DYIHPF-OH)", "values": [{"measurement": "Kd", "setting": "[4]; read-out: Kd of analog for the AT4 receptor", "value": "> 1000", "unit": "nM"}]}
{"molecule": "Nc1nc2c(ncn2[C@@H]2O[C@H](COP(=O)(O)OP(=O)(O)OP(O)(O)=S)[C@@H](O)[C@H]2O)c(=O)[nH]1", "note": "[GTPγS]", "values": [{"measurement": "effect on 125I-AIV binding to AT4 receptors", "setting": "[10]", "value": "no effect; also recorded: did not inhibit (or alter) binding"}, {"measurement": "effect on 125I-AII binding to AT1 receptors", "setting": "[11]", "value": "inhibited"}, {"measurement": "effect on 125I-AIV binding to AT4 receptors", "setting": "[4]", "value": "not altered"}]}
{"molecule": "CC(C)[C@H](N)CN[C@@H](Cc1ccc(O)cc1)C(=O)N[C@H](CN[C@@H](Cc1c[nH]cn1)C(=O)N1CCC[C@H]1C(=O)N[C@@H](Cc1ccccc1)C(=O)O)C(C)C", "note": "[Val1 Val3 AIV, ^+ H3 N-Val(CH2 NH)Tyr-Val(CH2 NH)-His-Pro-Phe-COO--]", "values": [{"measurement": "metabolic stability, in words", "setting": "[6]; listed as Val(I)Val(3) AIV", "value": "totally resistant to enzymatic degradation"}, {"measurement": "metabolic stability, in words", "setting": "[6]; listed as divalinal AIV", "value": "enhanced metabolic stability"}, {"measurement": "peptide remaining intact", "setting": "[6]; rat kidney membranes, room temperature, after 4 hr of incubation", "value": 100, "unit": "%"}, {"measurement": "effect on arterial blood pressure", "setting": "[7]", "value": "did not alter blood pressure or renal blood flow"}]}
{"molecule": "CGP42112A [reference compound]", "values": [{"measurement": "Ki", "setting": "[2]; bovine adrenal cortical membranes", "value": "> 100", "unit": "µM"}]}
{"molecule": "Phe2 Tyr6 AIV: positions of Phe and Tyr reversed, SEQ. ID. NO. 36 (VPIHYF)", "values": [{"measurement": "AT4 receptor binding affinity, in words", "setting": "[4]; [12]", "value": "very low binding affinity"}]}
